Results as given in patent publication US11911394B2, “Compound and method for the prevention of transmission of influenza virus” (Hoffmann-La Roche Inc., priority 2019, dated 2024).

Experiment: Example 5 pharmacokinetic analysis in ferret, plasma concentration by LC-MS/MS
Type: in vivo
Procedure: Outbred female and ferrets 28 months old and weighing between 650-802 g were obtained from Japan SLC, Inc. Identification was conducted by labeling sequential number in front of each cage. Animals were monitored at least once daily for their clinical observations, and had ad libitum access to pellet feed (LabDiet High Density Ferret Diet, Lab Supply, USA) and water. Ferrets at endpoint were euthanized by exsanguination under anesthesia by inhalation with isoflurane (Pfizer). Ferret studies were performed in Shionogi Pharmaceutical Research Center, Shionogi & Co., Ltd. (Osaka, Japan), according to the animal study protocol which was approved by the Institutional Animal Care and Use Committee in Shionogi.
The active form baloxavir acid (S-033447, hereafter BXA) was provided by Test Substance Control Personnel, Shionogi & Co., Ltd., Japan. The vehicle for BXA delivery was methyl cellulose (Fuji-Film Wako, Japan) in 0.5 w/v % aqueous solution prepared with sterile water (hereafter MC solution). BXA in suspension with MC solution (1 mg/mL) was prepared using an agate mortar and pestle, and was delivered to reversibly anaesthetised animals in a single treatment consisting of 4 subcutaneous injections at 4 locations on the dorsal region (total dose 4 mg/kg per animal). […]
The plasma concentration of BXA was determined by LC-MS/MS, consisting of LC-20A system (Shimadzu Corporation, Japan) and API 5000 (AB SCIEX, USA). […]
Precursor/product transitions (m/z) of 484/247 and 490/247 were monitored for BXA and internal standard, BXA-racemate-d4^18O, respectively. […]
The plasma concentrations of BXA for each individual ferret were calculated by Analyst software (AB SCIEX, USA). The mean value and standard deviation were also calculated using individual data by Microsoft Excel (Microsoft Co., USA).

## O=C1c2c(O)c(=O)ccn2N([C@@H]2c3ccccc3SCc3c2ccc(F)c3F)[C@@H]2COCCN12 [baloxavir, baloxavir acid]
plasma, subcutaneous, single s.c. suspension 4 mg/kg, 168 hours postdose, read-out: mean plasma concentration at last sampling point
  concentration at 168 h: 9.08 ng/mL
Single s.c. suspension 4 mg/kg
  time at which mean plasma concentration reached the maximum: 3 hours postdose
Single s.c. suspension 4 mg/kg (4 locations, 1 mg/kg per location), 3 hours postdose
  mean plasma concentration, maximum: 26.1 ng/mL
